This data set can be described thus: everted gut sac model in vitro. The conditions noted are these: jejunum, ECH 0.09 mg/mL; verapamil 0.2 mg/mL, borneol 0.1 mg/mL, pennyroyal 0.1 mL/mL, clove oil 0.1 mL/mL.

Consider one compound from publication PMC4544722 (Drug Design, Development and Therapy, 2015).

For `CC1(C)C2CCC1(C)C(O)C2` (stereo not shown) [borneol], the “effect on ECH absorption parameters F and Papp versus control” value is reported as “neither borneol nor pennyroyal had significant absorption enhancing effect”.
